Measurements from patent US4146622A, “Aziridinyl quinone anti-transplanted tumor agents” (priority 1977, dated 1979).
≈ marks a conversion by molar mass, not a printed value. Where “and” joins values, the source holds several entries; their conditions need not be identical. Identical values can stand only once. Entries after “also recorded” stand apart in the source; their conditions may differ. Like-named read-outs stand apart in the source and are kept apart here.

Columns and labels:
lymphoid leukemia L1210 [1] = assay: Intraperitoneal (IP) lymphoid leukemia L1210 transplanted mouse tumor test; assay type: in vivo, murine; conditions: for ILS (increase in life span) / T - C (average weight change of test group minus control): Table II; for T - C (average weight change of test group minus control): day 5
Excerpt: ^(a) Day 1-9 treatment schedule (9 injections)
^(b) Day 1,5,9 treatment schedule (3 injections)
^(c) Day 1 only treatment schedule (1 injection)
^(f) Percentage increase in life span of treated animals [(treated
survival .div. control survival) × 100%] - 100%

[2] = system: P388 lymphocytic leukemia; assay: Intraperitoneal (IP) lymphocytic leukemia P388 transplanted mouse tumor test; assay type: in vivo, murine
B16 melanocarcinoma = assay: Intraperitoneal B16 melanocarcinoma transplanted mouse tumor test; assay type: in vivo, murine; conditions: for ILS (increase in life span): Table II
Excerpt: ^b Ip tumor implantation, ip QD1-9 treatment schedule.
(§1) The L1210, P388 and B16 test systems described in Table II utilize intraperitoneal (IP) tumor implantation and IP drug treatment while the Lewis lung system employs subcutaneous tumor implantation and IP treatment.
Aqueous saline solution (0.9%) was used as the drug vehicle. Normally, five doses were employed per experiment with the top dose chosen to produce toxicity. The lower doses were 50% of each preceeding dose.
Consistent with NCI antitumor test protocols, intraperitoneal (IP) administration of the drug was employed with all five tumor systems investigated. Tumor implantation was IP in the systems designated IP leukemia L1210 and P388 as well as B16 melanoma.

Lewis lung carcinoma = assay: Lewis lung carcinoma, subcutaneous tumor implantation; assay type: in vivo, murine
Excerpt: ^c Subcutaneous tumor implantation, ip QD5-15 treatment schedule.
as §1

lymphoid leukemia L1210 [3] = assay: Intracerebral (IC) lymphoid leukemia L1210 test; assay type: in vivo, murine; conditions: for ILS (increase in life span): Table III
Excerpt: (§2) ^b Ic tumor implantation, ip QD1-9 treatment schedule.
(§3) The L1210, P388 and B16 test systems described in Table II utilize intraperitoneal (IP) tumor implantation and IP drug treatment while the Lewis lung system employs subcutaneous tumor implantation and IP treatment. All three CNS tumor models (Table III) use intracerebral (IC) tumor implantation and IP treatment.
Consistent with NCI antitumor test protocols, intraperitoneal (IP) administration of the drug was employed with all five tumor systems investigated. Tumor implantation was IP in the systems designated IP leukemia L1210 and P388 as well as B16 melanoma. Intracerebral (IC) tumor implantation was utilized in the IC L1210 and ependymoblastoma tumor systems.

[4] = system: P388 lymphocytic leukemia; assay: Intracerebral (IC) lymphocytic leukemia P388 test; assay type: in vivo, murine; conditions: for ILS (increase in life span): Table III
Excerpt: as §2
Central nervous system antitumor activity is given in Table III for the intracerebrally implanted L1210, P388, and ependymoblastoma tumor systems.
All three CNS tumor models (Table III) use intracerebral (IC) tumor implantation and IP treatment.

ependymoblastoma = assay: Intracerebral (IC) ependymoblastoma (EM) brain tumor test; assay type: in vivo, murine; conditions: for ILS (increase in life span) / T - C (average weight change of test group minus control) / Cures (animals alive per six on day of termination): Table III; for ILS (increase in life span) / T - C (average weight change of test group minus control): ic ependymoblastoma; for T - C (average weight change of test group minus control): day 5
[5] = Room temperature water solubility; assay type: physicochemical
Outline: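 Water added incrementally by pipet, with shaking, to a weighed amount of compound at room temperature until dissolved; values are approximate.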

[6] = Octanol/H2O partition coefficient (log P); assay type: physicochemical; conditions: partition coefficient measured
Excerpt: ^(b) Octanol/H2 O values determined by C. Hansch and M. Yamakawa

[7] = system: IP ascites tumor systems (leukemia L1210 and P388); assay: IP ascites tumor systems (leukemia L1210 and P388); assay type: in vivo, murine
Excerpt: (§4) The criterion for minimum activity, %ILS, is defined here as follows: Intraperitoneal and intracerebral leukemia L1210 and intraperitoneal leukemia P388, 25%; intraperitoneal B16 melanoma and intracerebral ependymoblastoma, 40%. Consistent with NCI antitumor test protocols, intraperitoneal (IP) administration of the drug was employed with all five tumor systems investigated. Tumor implantation was IP in the systems designated IP leukemia L1210 and P388 as well as B16 melanoma. Intracerebral (IC) tumor implantation was utilized in the IC L1210 and ependymoblastoma tumor systems.

[8] = system: transplanted mouse tumor test systems; assay: Transplanted mouse tumor test systems (overall statement); assay type: in vivo, murine
Excerpt: The criterion for minimum activity is defined here as follows: intraperitoneal and intracerebral L1210 leukemia, 25%; intraperitoneal and intracerebral P388 leukemia, 25%; B16 melanoma, 40%; Lewis lung carcinoma, 25%; and intracerebral ependymoblastoma, 40%.
as §3, §4

[9] = IP L1210, ip QD1-9, 0.88 mg/kg/injection
[10] = IP L1210, ip QD1-9, 1.30 mg/kg/injection
[11] = IP L1210, ip QD1-9, 6.25 mg/kg/injection
[12] = ip QD1-5, 1.00 mg/kg/injection, expt 133 (day 99)
[13] = ip QD1-5, 1.00 mg/kg/injection, expts 136 and 144 (day 60)
[14] = ip QD1-5, 2.00 mg/kg/injection, expt 133 (day 99)
[15] = ip QD1-5, 2.00 mg/kg/injection, expts 136 and 144 (day 60)
[16] = ip QD1-5, 4.00 mg/kg/injection, expt 136 (day 60)

CCOC(=O)NC1=C(N2CC2)C(=O)C(NC(=O)OCC)=C(N2CC2)C1=O [Compound 9, 2,5-Diaziridinyl-3,6-bis (carboethoxyamino)-1,4-benzoquinone]
activity (%ILS) (lymphoid leukemia L1210 [1]; IP L1210, Q4D schedule): 54% | optimum dose (lymphoid leukemia L1210 [1]; IP L1210, Q4D schedule): 6.25 mg/kg | optimum dose (OD) (lymphoid leukemia L1210 [1]; IP L1210, QD1-9): 2 to 3 mg/kg | therapeutic ratio (TR, highest active dose divided by lowest active dose) (lymphoid leukemia L1210 [1]; IP L1210, QD1-9): approximately 4 | increase in life span (ILS) (lymphoid leukemia L1210 [1]; L1210, Q4D and QD1-9 schedules): > 25% | antitumor activity (lymphoid leukemia L1210 [1]; L1210 system, Q4D and QD1-9 schedules): very active | ILS (increase in life span) (lymphoid leukemia L1210 [1]; [9]): 32% | T - C (average weight change of test group minus control) (lymphoid leukemia L1210 [1]; [9]): -1.4 grams | ILS (increase in life span) (lymphoid leukemia L1210 [1]; [10]): 60% | T - C (average weight change of test group minus control) (lymphoid leukemia L1210 [1]; [10]): -2.3 grams | ILS (increase in life span) (lymphoid leukemia L1210 [1]; IP L1210, ip QD1-9, 2.00 mg/kg/injection): 101% and 125% | ILS (increase in life span) (lymphoid leukemia L1210 [1]; [11]): 27% | T - C (average weight change of test group minus control) (lymphoid leukemia L1210 [1]; [11]): -4.1 grams | T - C (average weight change of test group minus control) (lymphoid leukemia L1210 [1]; IP L1210, ip QD1-9, 12.50 mg/kg/injection): -5.0 grams | OD (optimum dose) (lymphoid leukemia L1210 [1]; Table IV, (IP) L1210, QD1-9): 3 mg/kg/injection and 2 mg/kg/injection and 4 mg/kg/injection | % ILS (lymphoid leukemia L1210 [1]; Table IV, (IP) L1210, QD1-9, at OD): 169% and 113% and 101% and 100% | ILS (%) IP L1210 (lymphoid leukemia L1210 [1]; Table XI, outstanding activity): 169% | ILS (lymphoid leukemia L1210 [1]; standard IP L1210 test, QD1-9): > 100% | OD (optimum dose) ([2]; IP P388): 1 to 2 mg/kg | antitumor activity ([2]; IP P388): very active | ILS (increase in life span) ([2]; Table II, IP P388, ip QD1-9, 0.78 mg/kg/injection): 111% and 99% and 112% | ILS (increase in life span) ([2]; Table II, IP P388, ip QD1-9, 1.56 mg/kg/injection): 138% and 135% and 112% | T - C (average weight change of test group minus control) ([2]; Table II, IP P388, ip QD1-9, 6.25 mg/kg/injection, day 5): -6.1 grams | OD (optimum dose) ([2]; Table IV, (IP) P388, QD1-9): 1.6 mg/kg/injection and 0.8 mg/kg/injection | % ILS ([2]; Table IV, (IP) P388, QD1-9, at OD): 138% and 135% and 112% | survivors of 6 test mice on experiment termination day ([2]; Table IV, (IP) P388, QD1-9, at OD, day 30): 1 | ILS (%) P388 ([2]; Table XI, outstanding activity): 138% | survivors (number in parentheses) P388 ([2]; Table XI, per 6 test animals, day 30): 1 | OD (optimum dose) (B16 melanocarcinoma; B16): 3.12 mg/kg | antitumor activity (B16 melanocarcinoma; B16 melanoma): very active | B16 melanoma activity (ILS) (B16 melanocarcinoma; OD of 3.12 mg/kg): ≤ 70% | ILS (increase in life span) (B16 melanocarcinoma; B16, ip QD1-9, 1.56 mg/kg/injection): 38% and 44% and 58% | ILS (increase in life span) (B16 melanocarcinoma; B16, ip QD1-9, 3.12 mg/kg/injection): 58% and 43% and 70% | OD (optimum dose) (B16 melanocarcinoma; Table IV, (IP) B16, QD1-9): 3 mg/kg/injection | % ILS (B16 melanocarcinoma; Table IV, (IP) B16, QD1-9, at OD): 94% and 70% and 62% | ILS (%) B16 (B16 melanocarcinoma; Table XI, outstanding activity): 70% | antitumor activity (Lewis lung carcinoma; Lewis lung): Marginal activity | ILS (increase in life span) (Lewis lung carcinoma; Table II, sc Lewis lung, ip QD5-15, 2.00 mg/kg/injection): 38% and 34% | OD (optimum dose) (lymphoid leukemia L1210 [3]; IC L1210): 3.12 mg/kg | antitumor activity (lymphoid leukemia L1210 [3]; IC L1210): substantial | ILS (lymphoid leukemia L1210 [3]; IC L1210, OD 3.12 mg/kg): 79% and 84% | ILS (increase in life span) (lymphoid leukemia L1210 [3]; ic L1210, ip QD1-9, 1.56 mg/kg/injection): 51% and 46% | ILS (increase in life span) (lymphoid leukemia L1210 [3]; ic L1210, ip QD1-9, 3.12 mg/kg/injection): 84% and 79% | ILS (increase in life span) (lymphoid leukemia L1210 [3]; ic L1210, ip QD1-9, 6.25 mg/kg/injection): 10% and 3% | OD (optimum dose) (lymphoid leukemia L1210 [3]; Table IV, (IC) L1210, QD1-9): 3 mg/kg/injection and 5 mg/kg/injection | % ILS (lymphoid leukemia L1210 [3]; Table IV, (IC) L1210, QD1-9, at OD): 84% and 79% and 63% and 58% | ILS (%) IC L1210 (lymphoid leukemia L1210 [3]; Table XI, outstanding activity): 84% | antitumor activity ([4]; IC P388): substantial | ILS (increase in life span) ([4]; ic P388, ip QD1-9, 0.39 mg/kg/injection): 7% and 2% | ILS (increase in life span) ([4]; ic P388, ip QD1-9, 0.78 mg/kg/injection): 27% and 25% | ILS (increase in life span) ([4]; ic P388, ip QD1-9, 1.56 mg/kg/injection): 37% and 51% | ILS (increase in life span) ([4]; ic P388, ip QD1-9, 3.12 mg/kg/injection): 39% and 31% | OD (optimum dose) ([4]; Table IV, (IC) P388, QD1-9): 1.5 mg/kg/injection and 3 mg/kg/injection | % ILS ([4]; Table IV, (IC) P388, QD1-9, at OD): 51% and 39% | antitumor activity (ependymoblastoma; IC ependymoblastoma (EM)): curative; also recorded: very active | ILS (increase in life span) (ependymoblastoma; ip QD1-5, 0.25 mg/kg/injection): 30% | T - C (average weight change of test group minus control) (ependymoblastoma; ip QD1-5, 0.25 mg/kg/injection): -1.5 grams | ILS (increase in life span) (ependymoblastoma; ip QD1-5, 0.50 mg/kg/injection): 62% | T - C (average weight change of test group minus control) (ependymoblastoma; ip QD1-5, 0.50 mg/kg/injection): -1.8 grams | ILS (increase in life span) (ependymoblastoma; [12]): 348% | ILS (increase in life span) (ependymoblastoma; [13]): 126% and 171% | ILS (increase in life span) (ependymoblastoma; [14]): 349% | ILS (increase in life span) (ependymoblastoma; [15]): 277% and 171% | ILS (increase in life span) (ependymoblastoma; [16]): 276% | T - C (average weight change of test group minus control) (ependymoblastoma; ip QD1-5, 8.00 mg/kg/injection): -5.0 grams | Cures (animals alive per six on day of termination) (ependymoblastoma; [12]): 3/6 | Cures (animals alive per six on day of termination) (ependymoblastoma; [13]): 1/6 and 5/6 | Cures (animals alive per six on day of termination) (ependymoblastoma; [14]): 4/6 | Cures (animals alive per six on day of termination) (ependymoblastoma; [15]): 5/6 | Cures (animals alive per six on day of termination) (ependymoblastoma; [16]): 4/6 | OD (optimum dose) (ependymoblastoma; Table IV, (IC) ependymoblastoma, QD1-5): 2 mg/kg/injection and 1 mg/kg/injection | % ILS (ependymoblastoma; Table IV, (IC) ependymoblastoma, QD1-5, at OD): > 277% and > 202% and > 172% and > 171% | survivors of 6 test mice on experiment termination day (ependymoblastoma; Table IV, (IC) ependymoblastoma, QD1-5, at OD, day 60): 5 and 4 and 6 | survivors (number in parentheses) EM (ependymoblastoma; Table XI, per 6 test animals, day 60): 5 | TR (therapeutic ratio) (ependymoblastoma; ependymoblastoma): 4-8 | optimum dose (ependymoblastoma; ependymoblastoma): 1 to 2 mg/kg | survival (ependymoblastoma; experiment 133, 2.0 mg/kg, day 99): A majority of the test animals were alive on day 99 | solubility [5]: appeared to be adequate | solubility ([5]; water, approximate, read-out: aqueous solubility): ~500 µg/mL (≈ 1370 µM) | log P [6]: 0.05 | antitumor activity [7]: does not give multiple cures | toxicity [8]: reasonably toxic material | antitumor activity ([8]; IC and other transplanted mouse tumor systems): very substantial activity; also recorded: Antitumor activity was observed; also recorded: intracerebral (IC) as well as IP antitumor activity | TR (therapeutic ratio) ([8]; last three systems (P388, B16, Lewis lung)): 3-4
